# Measured values taken from publication PMC12340957, “Interactions between Lipopolysaccharide and Peptide Bacteriocin BacSp222 Influence Their Biological Activities” (ACS Infectious Diseases, 2025).
# Ends that are not written are not given here. * marks the point of attachment. For = O=C*
# What was measured:
# [1] = molecular target: T1, TLR4 receptor (Homo sapiens, UniProt O00206+Q9Y6Y9); test: HEK-Blue hTLR4 stimulation, SEAP reporter; format: cell-based; details: HEK-Blue hTLR4, BacSp222 0.016 to 2 μM without LPS, 17 h
# T1 construct: host or cells: HEK-Blue hTLR4 (HEK293 reporter cells)
# T1 sequence (O00206 24-839): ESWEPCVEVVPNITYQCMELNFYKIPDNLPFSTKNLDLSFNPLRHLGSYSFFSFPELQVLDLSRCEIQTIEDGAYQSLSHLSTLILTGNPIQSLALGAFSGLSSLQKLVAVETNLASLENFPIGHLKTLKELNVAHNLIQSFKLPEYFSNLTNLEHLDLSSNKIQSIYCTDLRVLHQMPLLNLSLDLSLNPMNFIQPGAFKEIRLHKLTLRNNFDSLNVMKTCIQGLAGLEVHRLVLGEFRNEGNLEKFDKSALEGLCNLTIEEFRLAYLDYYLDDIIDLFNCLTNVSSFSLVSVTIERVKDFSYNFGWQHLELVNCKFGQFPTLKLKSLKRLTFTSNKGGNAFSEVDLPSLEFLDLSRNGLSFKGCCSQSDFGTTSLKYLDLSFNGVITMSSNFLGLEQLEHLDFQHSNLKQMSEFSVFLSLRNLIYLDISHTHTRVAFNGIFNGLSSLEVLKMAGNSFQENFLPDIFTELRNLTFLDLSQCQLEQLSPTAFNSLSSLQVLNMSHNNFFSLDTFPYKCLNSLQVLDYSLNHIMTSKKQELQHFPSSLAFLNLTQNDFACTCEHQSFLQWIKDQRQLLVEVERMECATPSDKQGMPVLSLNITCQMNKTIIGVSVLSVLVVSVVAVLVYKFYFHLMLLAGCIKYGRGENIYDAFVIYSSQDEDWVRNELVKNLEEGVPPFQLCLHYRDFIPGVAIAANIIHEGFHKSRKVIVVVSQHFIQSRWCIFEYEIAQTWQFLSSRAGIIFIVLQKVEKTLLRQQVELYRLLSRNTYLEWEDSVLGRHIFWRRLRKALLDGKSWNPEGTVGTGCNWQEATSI
# T1 sequence (Q9Y6Y9 17-160 limits assumed): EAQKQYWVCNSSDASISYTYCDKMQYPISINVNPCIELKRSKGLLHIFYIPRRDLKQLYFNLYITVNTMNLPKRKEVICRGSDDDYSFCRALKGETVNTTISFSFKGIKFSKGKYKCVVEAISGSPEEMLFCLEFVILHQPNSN
# Experimental: The eukaryotic cells were cultured according to the methods described in previous publications. , The murine monocyte/macrophage RAW 264.7 cell line (ATCC TIB-71) and the murine monocyte/macrophage P388.D1 cell line (ATCC CCL-46) were purchased from the American Type Culture Collection (ATCC, Manassas, VA, USA). Human TLR4/NF-κB/SEAP (HEK-Blue hTLR4) and human TLR2 + TLR6/NF-κB/SEAP (HEK-Blue hTLR2/TLR6) reporter HEK293 cells were obtained from InvivoGen (San Diego, CA, USA). The passages of all TLR reporter HEK293 cells ranged from 7 to 15. All cells used in experiments were cultured under the following conditions: 5% CO2, 37 °C, and >95% humidity. RAW 264.7 and P388.D1 cells were cultured in Dulbecco’s modified Eagle’s medium (DMEM) containing 4.5 g/L glucose (GIBCO, Paisley, UK) and 5% (v/v) fetal bovine serum (FBS, GIBCO, Paisley, UK), whereas HEK-Blue hTLR4 and HEK-Blue hTLR2/TLR6 were cultured in DMEM containing 4.5 g/L glucose, 10% (v/v) FBS, 50 units/mL penicillin, and 50 μg/mL streptomycin (both from GIBCO, Paisley, UK). […]
# Measurement of the activity of SEAP, secreted by the HEK-Blue cells to the media, was conducted as described previously. […] Then, the plate was incubated at 37 °C for 1 h in the dark, and the absorbance was measured at 620 nm using a Synergy H1 Hybrid microplate reader controlled by Gene5 version 2.00.18 software (BIOTEK Instruments, Winooski, VT, USA). […]
# [2] = system: proenzyme Factor C from amebocyte lysate; test: Residual LPS activity, amebocyte lysate test (Pierce Chromogenic Endotoxin Quant Kit); format: biochemical; details: 4 μg BacSp222 preincubated with 3 pg LPS O111:B4 standard, 15 min, 37 °C, 60 μL PBS; 405 nm; mean n = 3
# Experimental: The separate and independent assay used to determine the reduction of the LPS biological potential after incubation with BacSp222 was a test. Briefly, this approach utilizes the ability of endotoxin to activate a proenzyme Factor C from amebocyte lysate and allows for spectrophotometric measurement of the released active enzyme using a chromogenic synthetic peptide substrate. Due to high specificity and sensitivity, this assay is widely used to detect trace amounts of LPS. As presented in Figure , preincubation of LPS with a large excess of BacSp222 reduced LPS activity by ca. 50%.
# The residual biological activity of LPS after preincubation with BacSp222 was evaluated by using a commercial assay kit. The reaction was performed for 4 μg of BacSp222, which was preincubated with 3 pg of LPS O111:B4 standard for 15 min at 37 °C in a final volume of 60 μL of PBS without Ca^2+ and Mg^2+. Simultaneously and independently, the same quantity of BacSp222 and LPS as above was preincubated separately as controls. After preincubation, the residual biological activity of endotoxin in all samples was determined using a spectrophotometric Pierce Chromogenic Endotoxin Quant Kit (Thermo, Waltham, MA, USA). The absorbance was measured at 405 nm using a microplate reader Synergy H1 Hybrid plate reader controlled by Gene5 version 2.00.18 software (BIOTEK Instruments, Winooski, VT, USA).
# [3] = system: FPR1; parameters: method as in number not given; details: ref number not given; cited from earlier work
# [4] = system: Gram-positive bacteria; details: pore formation; ref number not given; cited from earlier work
# Excerpt: (§1) A good example of such a multifunctional and immunomodulatory bacteriocin is the peptide BacSp222, produced by an opportunistic canine pathogen, strain 222. BacSp222 is a 50 amino acid long linear peptide encoded on a plasmid and is produced without a leader sequence, retaining a formylated N-terminal methionine. Its amino acid sequence seems to be unique, but the general physicochemical properties of BacSp222 resemble features of a group of several previously described bacteriocins of, predominantly, different staphylococci: lacticins Q and Z, aureocins A53 and AurK411, capidermicin, and epid ...
# [5] = system: mouse immune cells; details: in the presence of IFN-gamma; ref number not given; cited from earlier work
# Excerpt: as §1
# [6] = system: pro-inflammatory cytokines; details: TNF, MCP-1, IL-1-alpha, IL-8; via TLR2/TLR6, MyD88, NF-κB; ref our recent studies; cited from earlier work
# Excerpt: as §1
# [7] = system: Gram-negative; details: ref number not given; cited from earlier work
# Excerpt: The present study sheds more light on the multiple biological activities of BacSp222 and further makes the image of this peptide even more complex.
substance,measurement,setting,value
For-MAGLLRFLLSKGRALYNWAKSHVGKVWEWLKSGATYEQIKEWIENALGWR [BacSp222],stimulation of TLR4 by BacSp222 alone,[1],none of the tested BacSp222 concentrations stimulated the TLR4 receptors
same,reduction of LPS activity,[2],ca. 50%
same,activation of FPR1,[3],cannot activate
same,"bactericidal activity, Gram-positive bacteria",[4],kills a wide range of Gram-positive bacteria
same,induction of NO secretion,[5],"capable of stimulating mouse immune cells to express an inducible nitric oxide synthase and, consequently, to secrete nitric oxide (NO)"
same,induction of pro-inflammatory cytokines,[6],induces the synthesis of many pro-inflammatory cytokines
same,activity against Gram-negative bacteria,[7],inactive against Gram-negative ones
